Here are results for three molecules from patent US9616040B2 (priority 2016, dated 2017).

The conditions of series [1]: administered in large quantities; cited from earlier work.
A short description of series [2]: In vitro resorption of bovine vertebral cortical bone sections (weight change after incubation). How it is done: Fresh bovine vertebral bone was cut into 1-3 g sections with a diamond saw blade. Non-cortical medullary bone was trimmed from the cortical bone and the sections were dried while incubated for 12 hours at 37° C. and then weighed. […] Bone sections were then dried and reweighed.

The mark [3] stands for this setting: citric acid 0.001M, pH 3.25, 37° C., 96 hours.
Setting [4] is: citric acid 0.01M, pH 2.62, 37° C., 96 hours.
Where [5] appears, read: citric acid 0.1M, pH 2.08, 37° C., 96 hours.
Where [6] appears, read: citric acid 1M, pH 1.57, 37° C., 96 hours.
The mark [7] stands for this setting: sodium citrate 0.001M, pH 7.65, 37° C., 96 hours.
[8] abbreviates: sodium citrate 0.01M, pH 7.78, 37° C., 96 hours.
Setting [9] is: sodium citrate 0.1M, pH 9.27, 37° C., 96 hours.
Where [10] appears, read: sodium citrate 1M, pH 8.67, 37° C., 96 hours.

Several values for one entry are separate records, joined by “and”; a condition that tells them apart may be missing. Identical values can stand only once.

With `O=C(O)CC(O)(CC(=O)O)C(=O)O` [Citrate], the toxicity entry in series [1] is reported as “non-toxic”.
Take `O=C(O)CC(O)(CC(=O)O)C(=O)O` [Citric acid, citric acid]: the “% change” value in series [2] (setting [3]) is “+0.00349%”; in series [2] (setting [4]), −0.04435%; in series [2] (setting [5]) it was −0.1198%; in series [2] (setting [6]) it was −0.288%. The Wt. change result was “+0.00432 g” in series [2] (setting [3]), -0.06128 g in series [2] (setting [4]), -0.1916 g in series [2] (setting [5]) and -0.4863 g in series [2] (setting [6]). Also, the “dependence of bone resorption” value in series [2] (citric acid, 37° C., 96 hours) is “pH dependent”.
Consider `O=C([O-])CC(O)(CC(=O)[O-])C(=O)[O-].[Na+].[Na+].[Na+]` [Sodium citrate, sodium citrate], for which the “% change” value in series [2] (setting [7]) was −0.00037%; in series [2] (setting [8]) it was −0.01319%; in series [2] (sodium citrate 0.1M, pH 9.27, 37° C.), −0.03159% and −0.00551%; in series [2] (setting [9]), −0.01116%; in series [2] (sodium citrate 0.125M, pH 9.20, 37° C.), −0.00109% and −0.03799%; in series [2] (sodium citrate 0.15M, pH 9.16, 37° C.) it was −0.04659% and −0.05754%. The “% change” value is −0.00373% and −0.01174% in series [2] (sodium citrate 0.25M, pH 9.12, 37° C.); −0.00196% and −0.01386% in series [2] (sodium citrate 0.55M, pH 8.68, 37° C.); −0.01873% in series [2] (setting [10]). Also, the Wt. change in series [2] (setting [7]) was -0.00077 g; in series [2] (setting [8]), -0.03261 g; in series [2] (setting [9]), -0.01593 g; in series [2] (setting [10]) it was -0.04881 g. The “molarity of greatest resorption of bone” value in series [2] (sodium citrate, 37° C., 168 hours) is reported as 0.15 M.
